The record followed here is ChEMBL document CHEMBL1150112, “Enhancement of contraction of rat mesenteric artery by acteoside: role of endothelial nitric oxide” (J Nat Prod, 2002).

Active and inactive are the calls of the source. The rule behind the calls is not given here.

In test [1] the test system is Mesenteric artery. The test can be described thus: Potentiation of phenylepinephrine-induced contraction in endothelium-intact Sprague-Dawley rat mesenteric artery at 30 umol/L after 30 mins. Format: functional, tissue-based.
The subject of test [2] is Mesenteric artery. The test can be described thus: Potentiation of phenylepinephrine-induced contraction in endothelium-intact Sprague-Dawley rat mesenteric artery at 100 to 300 umol/L after 30 mins. The format is functional, tissue-based.
In test [3] the test system is Mesenteric artery. The test can be described thus: Potentiation of phenylepinephrine-induced contraction in endothelium-denuded Sprague-Dawley rat mesenteric artery at 30 umol/L after 30 mins. The format is functional, tissue-based.
In test [4] the test system is Mesenteric artery. The test can be described thus: Potentiation of phenylepinephrine-induced contraction in endothelium-intact Sprague-Dawley rat mesenteric artery at 30 umol/L after 30 mins in presence of NG-nitro-L-arginine methyl ester. The format is functional, tissue-based.
For test [5], the system named is Mesenteric artery. The test can be described thus: Potentiation of phenylepinephrine-induced contraction in endothelium-intact Sprague-Dawley rat mesenteric artery at 30 umol/L after 30 mins in presence of NG-nitro-L-arginine. The format is functional, tissue-based.
Test [6] relates to Mesenteric artery. The test can be described thus: Enhancement of phenylepinephrine-induced contraction in endothelium-intact Sprague-Dawley rat mesenteric artery at 30 umol/L after 30 mins in presence of co-treated 1H-[1,2,4]oxadiazolo[…]quinoxalin-1-one. Format: functional, tissue-based.
The subject of test [7] is Mesenteric artery. The test can be described thus: Potentiation of phenylepinephrine-induced vessel tension in endothelium-intact Sprague-Dawley rat mesenteric artery at 30 umol/L in presence of pretreated indomethacin. Format: functional, tissue-based.
Test [8] deals with Mesenteric artery. The test can be described thus: Increase in phenylepinephrine-induced vessel tension in endothelium-intact Sprague-Dawley rat mesenteric artery at 30 umol/L in presence of tetraethylammonium. Format: functional, tissue-based.
In test [9] the test system is Artery. The test can be described thus: Attenuation of acetylcholine-induced vasorelaxation in endothelium-intact Sprague-Dawley rat mesenteric artery at 30 umol/L after 30 mins. Format: functional, tissue-based.
Test [10] relates to Artery. The test can be described thus: Change in hydroxylamine-induced vasorelaxation in endothelium-denuded Sprague-Dawley rat mesenteric artery at 30 umol/L after 30 mins. The format is functional, tissue-based.
Test [11] has as its system Artery. The test can be described thus: Change in sodium nitroprusside-induced vasorelaxation in endothelium-denuded Sprague-Dawley rat mesenteric artery at 30 umol/L after 30 mins. Format: functional, tissue-based.
In test [12] the test system is Artery. The test can be described thus: Attenuation of forskolin-induced vasorelaxation in endothelium-denuded Sprague-Dawley rat mesenteric artery at 30 umol/L. The format is functional, tissue-based.
Test [13] relates to Artery. The test can be described thus: Change in NS 1619-induced vasorelaxation in endothelium-denuded Sprague-Dawley rat mesenteric artery at 30 umol/L. The format is functional, tissue-based.
Test [14] deals with Mesenteric artery. The test can be described thus: Potentiation of phenylepinephrine-induced contraction in endothelium-intact Sprague-Dawley rat mesenteric artery after 30 mins. The format is functional.
Test [15] can be described thus: Vasorelaxant activity in endothelium-intact Sprague-Dawley rat vascular smooth muscle at > 100 umol/L. The format is functional.

With `C[C@@H]1O[C@@H](O[C@@H]2[C@@H](O)[C@H](OCCc3ccc(O)c(O)c3)O[C@H](CO)[C@H]2OC(=O)/C=C/c2ccc(O)c(O)c2)[C@H](O)[C@H](O)[C@H]1O`, the outcome (with Mesenteric artery [1]; in the test on Mesenteric artery [7]; with Artery [9]; in test [15]) was Active. Also, the result in the test on Mesenteric artery [2], in the test on Mesenteric artery [3], in the test with Mesenteric artery [4], in the test on Mesenteric artery [5], in the test on Mesenteric artery [6] and with Mesenteric artery [8] was inactive. The result with Artery [10], with Artery [11], with Artery [12] and with Artery [13] was inactive. The Activity result with Mesenteric artery [14] was “Dose-dependent effect”.
